Measured values published in PubChem BioAssay (NCI).
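How tested: cells in 96-well plates exposed to compound for 48 hours at five concentrations. TGI: total growth inhibition.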

Experiments:
Assay in all cases: NCI-60 cell line screen, 48 h
[1] = system: SNB-19 CNS
[2] = system: A498 renal
[3] = system: OVCAR-8 ovarian
[4] = system: NCI/ADR-RES ovarian
[5] = system: HT29 colon
[6] = system: BT-549 breast

Row | Structure (SMILES) | TGI [1] | TGI [2] | TGI [3] | TGI [4] | TGI [5] | TGI [6]
1 | O=C1NC2c3c(I)sc(I)c3C(O)C2O1 (stereo unspecified) | > 100 µM | > 100 µM | > 100 µM | > 100 µM | > 100 µM | –
2 | O=C(O)[C@H]1CCCN1CP(=O)(O)CN1CCC[C@@H]1C(=O)O | > 100 µM | – | > 100 µM | > 100 µM | > 100 µM | > 100 µM
3 | COc1ccc(C2c3cn[nH]c3CC3CCCCC32)cc1 (stereo unspecified) | 43.5 µM | 23 µM | 35.6 µM | – | 41.4 µM | 33.5 µM
4 | CC(c1ccccc1)N1CCN(C(C)c2ccccc2)CC1 (stereo unspecified) | > 100 µM | > 100 µM | > 100 µM | > 100 µM | > 100 µM | > 100 µM
5 | CC1(C)OC[C@@H](O)[C@H](C#N)CO1 | > 100 µM | > 100 µM | > 100 µM | – | > 100 µM | > 100 µM
6 | O=C(O)CCNc1ncnc2nc[nH]c12 | > 100 µM | > 100 µM | > 100 µM | > 100 µM | > 100 µM | > 100 µM
7 | BrC(=C(c1ccc(OC2CCCCO2)cc1)c1ccc(OC2CCCCO2)cc1)c1ccccc1 (stereo unspecified) | > 100 µM | > 100 µM | > 100 µM | > 100 µM | > 100 µM | –
8 | Clc1ccc(-c2nnc3sc4nc5ccccc5c-4nn23)c(Cl)c1 | > 100 µM | > 100 µM | > 100 µM | > 100 µM | > 100 µM | 93.8 µM
9 | COc1ccc(C2OC(c3ccncc3)=NN2C)cc1F (stereo unspecified) | > 100 µM | > 100 µM | > 100 µM | > 100 µM | > 100 µM | –
10 | CCCCCC#CCOC(=O)C(=[N+]=[N-])P(=O)(c1ccccc1)c1ccccc1 | > 10 µM | > 10 µM | > 10 µM | – | > 10 µM | > 10 µM
11 | C=CCn1c(=O)c(C(=O)Nc2nc(C34CC5CC(CC(C5)C3)C4)cs2)c(O)c2ccccc21 | > 100 µM | > 100 µM | > 100 µM | 76.6 µM | > 100 µM | > 100 µM
12 | COc1cc(OC)cc(C(=O)CC(=O)c2cc(OC)cc(OC)c2)c1 | > 100 µM | > 100 µM | > 100 µM | > 100 µM | – | > 100 µM
13 | Cc1ccc(C2=CC(=O)OC(C[P+](c3ccccc3)(c3ccccc3)c3ccccc3)(c3ccccc3)O2)cc1 (stereo unspecified) | 30.9 µM | 29.1 µM | 51.1 µM | 40.2 µM | 29.1 µM | 49.2 µM
14 | Cc1nc(C)c(N2CCN([N+](=O)[O-])CC2)c(=O)[nH]1 | > 100 µM | > 100 µM | > 100 µM | > 100 µM | > 100 µM | > 100 µM
15 | NS(=O)(=O)c1ccc(NC(=S)/N=C/C2=C(O)c3ccccc3C2=O)cc1 | > 100 µM | > 100 µM | – | – | – | –
16 | COc1cc(O)c2c(c1)C(=O)c1cc3c(c(O)c1C2=O)C(OC1OC(C)C(OC)C(O)C1OC)C(OC)C(C)(O)C3=O (stereo unspecified) | 23.3 µM | 21.7 µM | 10.8 µM | – | 11.8 µM | 31.6 µM

Row | Structure (SMILES) | TGI [1] | TGI [2] | TGI [3] | TGI [4] | TGI [5] | TGI [6]
17 | Cn1c(SCc2ccc(F)cc2)nnc1C12CC3CC(CC(C3)C1)C2 | > 100 µM | 48.4 µM | > 100 µM | > 100 µM | 39.2 µM | –
18 | Cc1c(O)nc(-n2[nH]c3c(c2=O)CCCC3)[nH]c1=O | > 100 µM | > 100 µM | > 100 µM | > 100 µM | > 100 µM | > 100 µM
19 | O=c1[nH][nH]c(=O)n1CCCCCCn1c(=O)[nH][nH]c1=O | > 100 µM | > 100 µM | > 100 µM | > 100 µM | > 100 µM | > 100 µM
20 | CCN1CN(c2ccccc2)C2(CCN(CC3COc4ccccc4O3)CC2)C1=O (stereo unspecified) | > 100 µM | 72.5 µM | > 100 µM | > 100 µM | 46.7 µM | 34.7 µM
21 | COC(=O)/C=C\C(C#N)(C#N)N=Cc1ccc(C)cc1 | 43.1 µM | 31.8 µM | 6.12 µM | 10.9 µM | 18.7 µM | 11.2 µM
22 | C=C1C(=O)CC2C1CC(=O)/C(C)=C/CCC(C)(O)C2O (stereo unspecified) | > 67.1 µM | 48.4 µM | 11.6 µM | 28.3 µM | 26.9 µM | –
23 | O=P(O)(O)C(N=C(Nc1ccccc1)Nc1ccccc1)P(=O)(O)O | > 100 µM | – | > 100 µM | > 100 µM | > 100 µM | > 100 µM
24 | C=C1CC(C#N)(C#N)[C@H]2C3CCCC3C[C@@H]12 (stereo partly specified) (tested in a mixture with another compound) | 67.4 µM | 48 µM | 33 µM | 48.2 µM | 28.1 µM | 56.8 µM
25 | Cc1nn(-c2ccccc2)c2c1C(c1cc3ccccc3nc1Cl)NC(=O)N2 (stereo unspecified) | 48.1 µM | 62 µM | 47.4 µM | > 100 µM | 35.4 µM | 36.8 µM
26 | OC[C@H]1O[C@@H]2O[C@@](COCc3ccccc3)([C@H](OCc3ccccc3)[C@H]2O)[C@@H]1OCc1ccccc1 | 32.4 µM | 32.1 µM | 29.1 µM | 36.1 µM | 17.3 µM | 37.2 µM
27 | O=C1c2ccccc2C(=O)N1n1c(Cc2ccc([N+](=O)[O-])cc2)n[nH]c1=O | > 100 µM | > 100 µM | > 100 µM | > 100 µM | > 100 µM | > 100 µM
28 | CC(C)(C)[Si](C)(C)OCC1OC(n2ccc(=O)[nH]c2=O)C(O[Si](C)(C)C(C)(C)C)/C1=C/C#N (stereo unspecified) | > 100 µM | 76.6 µM | > 100 µM | > 42.3 µM | > 47.7 µM | > 100 µM
29 | O=C1NC(N2CCOCC2)=N/C1=C\c1ccco1 | > 100 µM | – | > 100 µM | > 100 µM | > 100 µM | > 100 µM
30 | C=C(C(=O)OCC)C(=O)OCC | > 100 µM | – | > 100 µM | – | > 100 µM | > 100 µM
31 | O=C1OC(C2Cc3ccc4ccccc4c3C2=O)c2ccccc21 (stereo unspecified) | 92.6 µM | > 100 µM | > 100 µM | > 100 µM | – | > 100 µM
32 | S=c1c2cn[nH]c2nc2scc(-c3ccc(Cl)cc3)n12 | 86.2 µM | – | 41.7 µM | 31.2 µM | 32.6 µM | 27.5 µM
